According to patent US5071965A, “Novel TC-99M complexes” (Mallinckrodt Medical, Inc., priority 1989, dated 1991):

Assay: Biodistribution of Tc-99m complexes in guinea pigs (heart uptake, heart/blood)
Conditions: 5 minutes, Tc-99m complex
Experimental: The procedures used for determining biodistribution are as follows.
Guinea Pigs--The guinea pigs are anesthetized and the technetium complex is injected into the jugular vein after a cutdown. The animals are sacrificed after 5 minutes and the organs removed and counted as with the rats.
For guinea pigs, significant heart uptake is determined if the percentage of technetium in the heart is greater than 0.5% and the heart/blood ratio is greater than 1.

| Guinea Pig Heart/Blood Ratio | Compound |
| --- | --- |
| 18 | Cc1ccc(O)c(C=NCC(C)(CN=Cc2cc(C)ccc2O)CN=Cc2cc(C)ccc2O)c1 (stereo not shown) [R5=H, R6=H, R7=CH3, R8=H, R3=H, R4=CH3] |
| 16 | COc1ccc(C=NCC(C)(CN=Cc2ccc(OC)cc2O)CN=Cc2ccc(OC)cc2O)c(O)c1 (stereo not shown) [R5=H, R6=OCH3, R7=H, R8=H, R3=H, R4=CH3, 3-Methoxyphenol, 6,6'-[[2-[[[(4-methoxy-2-hydroxyphenyl)methylene]amino]methyl]-2-methyl-1,3-propanediyl]bis(nitrilomethylidyne)]bis-] |

Same assay, conditions: complex made from the reduced ligand

| guinea pig biodistributions, compared with the complex of Example 95 | Compound |
| --- | --- |
| identical | CCCOCC(CNCc1ccccc1O)(CNCc1ccccc1O)CNCc1ccccc1O [Example 96, 1,1,1-tris(2-hydroxyphenylmethylaminomethyl)-2-propoxyethane] |

Same assay, conditions: jugular vein injection, 5 minutes, Tc-99m complex

| 5 Minute Guinea Pig % HT Uptake [%] | Compound |
| --- | --- |
| 1.82 | Cc1ccc(O)c(C=NCC(C)(CN=Cc2cc(C)ccc2O)CN=Cc2cc(C)ccc2O)c1 (stereo not shown) [R5=H, R6=H, R7=CH3, R8=H, R3=H, R4=CH3] |
| 1.57 | COc1cc(O)c(C=NCC(C)(CN=Cc2c(O)cc(OC)c(OC)c2OC)CN=Cc2c(O)cc(OC)c(OC)c2OC)c(OC)c1OC (stereo not shown) [3,4,5-trimethoxyphenol, 2,2'-[[2-[[[(4,5,6-trimethoxy-2-hydroxyphenyl)methylene]amino]methyl]-2-methyl-1,3-propanediyl]bis(nitrilomethylidyne)]bis-] |
| 0.84 | Oc1ccccc1C=NCCN(CCN=Cc1ccccc1O)CCN=Cc1ccccc1O [R5=H, R6=H, R7=H, R8=H, R3=H, R4=--, tris(2-salicylideneiminoethyl)amine] |
| 1.71 | CCOCC(CN=Cc1ccccc1O)(CN=Cc1ccccc1O)CN=Cc1ccccc1O (stereo not shown) [phenol, 2,2'-[[2-[[[(2-hydroxyphenyl)methylene]amino]methyl]-2-ethoxymethyl-1,3-propanediyl]bis(nitrilomethylidyne)]bis-] |
| 1.24 | COc1c(O)c(C=NCC(C)(CN=Cc2c(O)c(OC)c(OC)c(OC)c2OC)CN=Cc2c(O)c(OC)c(OC)c(OC)c2OC)c(OC)c(OC)c1OC (stereo not shown) [2,3,4,5-tetramethoxyphenol, 6,6'-[[2-[[[(3,4,5,6-tetramethoxy-2-hydroxyphenyl)methylene]amino]methyl]-2-methyl-1,3-propanediyl]bis(nitrilomethylidyne)]bis-] |
| 1.15 | CCCCCC(CN=Cc1ccccc1O)(CN=Cc1ccccc1O)CN=Cc1ccccc1O (stereo not shown) [Phenol, 2,2'-[[2[[[(2-hydroxyphenyl)methylene]amino]methyl]-2-pentyl-1,3-propanediyl]bis(nitrilomethylidyne)]bis-] |
| 1.55 | CCC(C)OCC(CN=Cc1ccccc1O)(CN=Cc1ccccc1O)CN=Cc1ccccc1O (stereo not shown) [Phenol, 2,2'-[[2-[[[(2-hydroxyphenyl)methylene]amino]methyl]-(1-methylpropoxy)methyl-1,3-propanediyl]bis(nitrilomethylidyne)]bis-] |
| 1.30 | CC(CN=Cc1cc(F)ccc1O)(CN=Cc1cc(F)ccc1O)CN=Cc1cc(F)ccc1O (stereo not shown) [R5=H, R6=H, R7=F, R8=H, R3=H, R4=CH3] |
| 0.98 | COc1cc(COCC(CN=Cc2c(O)cc(OC)c(OC)c2OC)(CN=Cc2c(O)cc(OC)c(OC)c2OC)CN=Cc2c(O)cc(OC)c(OC)c2OC)cc(OC)c1OC (stereo not shown) [3,4,5-trimethoxyphenol, 2,2'-[[2-[[[(4,5,6-trimethoxy-2-hydroxyphenyl)methylene]amino]methyl]-2-(3,4,5-trimethoxyphenyl)methoxymethyl-1,3-propanediyl]bis(nitrilomethylidyne)]bis-] |
| 1.72 | CC(C)COCC(CN=Cc1ccccc1O)(CN=Cc1ccccc1O)CN=Cc1ccccc1O (stereo not shown) [Phenol, 2,2'-[[2-[[[(2-hydroxyphenyl)methylene]amino]methyl]-2-(2-methylpropoxy)methyl-1,3-propandiyl]bis(nitrilomethylidyne)]-] |
| 1.72 | Oc1c(F)cc(F)cc1C=NCC(CN=Cc1cc(F)cc(F)c1O)(CN=Cc1cc(F)cc(F)c1O)COCc1ccccc1 (stereo not shown) [2,4-difluorophenol, 2,2'-[[2-[[[(3,5-difluoro-2-hydroxyphenyl)methylene]amino]methyl]-2-phenylmethoxymethyl-1,3-propanediyl]bis(nitrilomethylidyne)]bis-] |
| 0.72 | CN(C)c1ccc(C=NCC(C)(CN=Cc2ccc(N(C)C)cc2O)CN=Cc2ccc(N(C)C)cc2O)c(O)c1 (stereo not shown) [3-Dimethylaminophenol, 6,6'-[[2-[[[(4-dimethylamino-2-hydroxy-phenyl)methylene]amino]methyl]-2-methyl-1,3-propanediyl]bis-(nitrilomethylidyne)]bis-] |
| 0.47 | CCc1cccc(C=NCC(C)(CN=Cc2cccc(CC)c2O)CN=Cc2cccc(CC)c2O)c1O (stereo not shown) [2-ethylphenol, 6,6'-[[2-[[[3-ethyl-2-hydroxyphenyl)methylene]amino]methyl]2-methyl-1,3-propanediyl]bis(nitrilomethylidyne)]bis-] |
| 1.66 | COCCCCC(CN=Cc1ccccc1O)(CN=Cc1ccccc1O)CN=Cc1ccccc1O (stereo not shown) |
| 1.23 | COC(=O)c1ccc(O)c(C=NCC(C)(CN=Cc2cc(C(=O)OC)ccc2O)CN=Cc2cc(C(=O)OC)ccc2O)c1 (stereo not shown) [methyl-4-hydroxybenzoate, 3,3'-[[2-[[[(5-carbomethoxy-2-hydroxyphenyl)methylene]amino]methyl]-2-methyl-1,3-propanediyl]bis(nitrilomethylidyne)]bis-] |
| 1.72 | CSc1ccc(C=NCC(C)(CN=Cc2ccc(SC)cc2O)CN=Cc2ccc(SC)cc2O)c(O)c1 (stereo not shown) [R5=H, R6=SCH3, R7=H, R8=H, R3=H, R4=CH3, 3-Methylthiophenol, 6,6'-[[2-[[[(4-methylthio-2-hydroxyphenyl)methylene]amino]methyl]-2-methyl-1,3-propanediyl]bis(nitrilomethylidyne)]bis-] |
| 1.23 | CSc1ccc(O)c(C=NCC(C)(CN=Cc2cc(SC)ccc2O)CN=Cc2cc(SC)ccc2O)c1 (stereo not shown) [R5=H, R6=H, R7=SCH3, R8=H, R3=H, R4=CH3, 4-methylthiophenol, 2,2'-[[2-[[[(5-methylthio-2-hydroxyphenyl)methylene]amino-]methyl]-2-methyl-1,3-propanediyl]bis(nitrilomethylidyne)]bis-] |
| 0.86 | COCC(CN=Cc1c(O)cc(OC)c(OC)c1OC)(CN=Cc1c(O)cc(OC)c(OC)c1OC)CN=Cc1c(O)cc(OC)c(OC)c1OC (stereo not shown) [3,4,5-trimethoxyphenol, 2,2'-[[2-[[[(4,5,6-trimethoxy-2-hydroxyphenyl)methylene]amino]methyl]-2-methoxymethyl-1,3-propanediyl]bis(nitrilomethylidyne)]bis-] |
| 1.14 | Oc1ccc(F)cc1C=NCC(CN=Cc1cc(F)ccc1O)(CN=Cc1cc(F)ccc1O)COCc1ccccc1 (stereo not shown) [4-fluorophenol, 2,2'-[[2-[[[(5-fluoro-2-hydroxyphenyl)methylene]amino]methyl]-2-phenylmethoxymethyl-1,3-propanediyl]bis(nitrilomethylidyne)]bis-] |
| 0.87 | CCCOCC(CN=Cc1ccc(OC)cc1O)(CN=Cc1ccc(OC)cc1O)CN=Cc1ccc(OC)cc1O (stereo not shown) |
| 1.52 | CCCOCC(CN=Cc1cc(OC)ccc1O)(CN=Cc1cc(OC)ccc1O)CN=Cc1cc(OC)ccc1O (stereo not shown) [4-Methoxyphenyl, 2,2'-[[2-[[[(5-methoxy-2-hydroxyphenyl)methylene]amino]methyl] -2-propoxymethyl-1,3-propanediyl]bis(nitrilomethylidyne)]bis-] |
| 2.11 | COc1ccc(C=NCC(C)(CN=Cc2ccc(OC)cc2O)CN=Cc2ccc(OC)cc2O)c(O)c1 (stereo not shown) [R5=H, R6=OCH3, R7=H, R8=H, R3=H, R4=CH3, 3-Methoxyphenol, 6,6'-[[2-[[[(4-methoxy-2-hydroxyphenyl)methylene]amino]methyl]-2-methyl-1,3-propanediyl]bis(nitrilomethylidyne)]bis-] |
| 1.21 | CCCOCC(CN=Cc1c(O)cc(OC)cc1OC)(CN=Cc1c(O)cc(OC)cc1OC)CN=Cc1c(O)cc(OC)cc1OC (stereo not shown) [3,5-dimethoxyphenol, 2,2'-[[2-[[[(4,6-dimethoxy-2-hydroxyphenyl)methylene]amino]methyl]-2-propoxymethyl-1,3-propanediyl]bis(nitrilomethylidyne)]bis-] |

| Compound | 5 Minute Guinea Pig % HT Uptake [%] |
| --- | --- |
| COc1cc(O)c(C=NCC(C)(CN=Cc2c(O)cc(OC)c(C)c2OC)CN=Cc2c(O)cc(OC)c(C)c2OC)c(OC)c1C (stereo not shown) [3,5-dimethoxy-4-methyl-phenol, 2,2'-[[2-[[[(4,6-dimethoxy-5-methyl-2-hydroxyphenyl)methylene]amino]methyl]-2-methyl-1,3-propanediyl]bis(nitrilomethylidyne)]bis-] | 0.84 |
| COc1cc(COCC(CN=Cc2ccccc2O)(CN=Cc2ccccc2O)CN=Cc2ccccc2O)cc(OC)c1OC (stereo not shown) [phenol, 2,2'-[[2-[[[(2-hydroxyphenyl)methylene]amino]methyl]-2-(3,4,5-trimethoxyphenyl)methoxymethyl-1,3-propanediyl]bis(nitrilomethylidyne)]bis-] | 1.00 |
| COCC(CN=Cc1ccccc1O)(CN=Cc1ccccc1O)CN=Cc1ccccc1O (stereo not shown) [phenol, 2,2'-[[2-[[[(2-hydroxyphenyl)methylene]amino]methyl]-2-methoxymethyl-1,3-propanediyl]bis(nitrilomethylidyne)]bis-] | 1.44 |
| CC(CN=Cc1cc(C(F)(F)F)ccc1O)(CN=Cc1cc(C(F)(F)F)ccc1O)CN=Cc1cc(C(F)(F)F)ccc1O (stereo not shown) [R5=H, R6=H, R7=CF3, R8=H, R3=H, R4=CH3] | 0.51 |
| Oc1ccccc1C=NCC(CN=Cc1ccccc1O)(CN=Cc1ccccc1O)COc1cccc2ccccc12 (stereo not drawn) [phenol, 2,2'[[2-[[[(2-hydroxyphenyl)methylene]amino]methyl]-2-α-napthoxymethyl-1,3-propanediyl]bis(nitrilomethylidyne)]bis-] | 0.72 |
| phenol, 2,2'-[[2-[[[(2-hydroxyphenyl)methylene]amino]methyl]-2-(4-methoxy-4-methyl)pentyl-1,3-propanediyl]bis(nitrilomethylidyne)]bis- | 1.61 |
| CCCCOCC(CN=Cc1ccccc1O)(CN=Cc1ccccc1O)CN=Cc1ccccc1O (stereo not shown) [Phenol, 2,2'[[-[[[(2-hydroxyphenyl)methylene]amino]methyl]-2-butoxymethyl-1,3-propandiyl]bis(nitrilomethylidyne)]bis-] | 1.463 |
| CCC(=NCC(C)(CN=C(CC)c1ccccc1O)CN=C(CC)c1ccccc1O)c1ccccc1O (stereo not shown) [phenol, 2,2'-[[2-[[[(2-hydroxyphenyl)propylene]amino]methyl]-2-methyl-1,3-propanediyl]bis(nitrilopropylidyne)]bis-] | 0.76 |
